Experimental data from US20150292032A1, “TREATMENT OF CANCER BY TARGETING QUIESCENT CANCER CELLS” (FELICITEX THERAPEUTICS, INC., priority 2012, published 2015).

Key:
[1] = test system: colon cancer cell line SW620; assay: S-phase fraction of cycling log-phase SW620 cells, BrdU pulse / PI flow cytometry; assay type: cell-based, human; details: 1 μM, 24 hours
Protocol: An experiment was run to determine if inhibition of DYRK1B activity would facilitate cells escaping quiescence and result in surge of proliferating cells, utilizing small molecule inhibitor R. Cycling, log-phase cells from colon cancer cell line SW620 were treated with 1 μM of DYRK1B inhibitor R for 24 hours with 1 hour pulse of BrdU before analysis by flow cytometry after propidium iodine staining of DNA. 38% of the cellular population was detected in the S-phase of the cell cycle. Parallel cultures were treated with the small molecule DYRK1B inhibitor R for 24 hours followed by identical FACS analysis (1-hour BrdU pulse followed by specific mAB-FITC and PI staining).

[2] = test system: Panc-1 pancreatic cancer cells; assay: Quiescent (G0) cell fraction in serum-starved Panc-1 cells, two-parameter flow cytometry (Pyronin Y / Hoechst); assay type: cell-based, human
Protocol: Panc-1 cells were forced into the quiescent state by serum deprivation for 48 hours. Panc-1 were cultured in DMEM+0.2% FBS for 48 hours. Next the cells were switched to fresh media DMEM+10% FBS (panel A) or to fresh media DMEM+1-% FBS supplemented with 0.25 μM DYRK1B inhibitor R (panel B). As a result of this serum deprivation, 42% of cells were identified in G0 quiescent state, as depicted in FIG. 5A. The percentage of quiescent cells was identified by flow cytometry FACS analysis.
Next, a DYRK1B small molecule inhibitor R, pictured in FIG. 7, was applied to inhibit the activity of DYRK1B kinase, and the percentage of quiescent cells was again analyzed. […] Upon inhibition of the activity of DYRK1B kinase, pancreatic cancer cells left the G0 quiescent state and progressed into cell cycle. While the number of quiescent cells had been reduced to 27% in the presence of DYRK1B inhibitor R, the number of cells in S-phase of cell cycle doubled (13%) as compared to control cells (6% in FIG. 5A). DYRK1B kinase activity was necessary for Panc-1 pancreatic cancer cells to accumulate in a quiescent state. The distribution of cellular population within the cell cycle (i.e. G0, G1, S and G2/M populations) was analyzed by two-parameter flow cytometry. Specifically, the incorporation of Pyronin Y and Hoechst staining correlated to RNA and DNA content distribution, respectively. (Ewton, D. Z., Hu, J., Vilenchik, M., Deng, X., Luk, K. C., Polonskaia, A., Hoffman, A. F., Zipf, K., Boylan, J. F., and Friedman, E. A. (2011) Inactivation of mirk/dyrk1b kinase targets quiescent pancreatic cancer cells, Molecular Cancer Therapeutics 10, 2104-2114).

## COc1ncc2cc(C(=O)Nc3cc(C(=O)NCc4cccc(Cl)c4)ccc3Cl)c(=O)[nH]c2n1 [inhibitor R]
[1]
  increase of fraction of S-phase cells compared to non-treated control: 29%
[1]; 1 hour BrdU pulse, control 38%
  S-phase population of cells: 49%
[2]; Panc-1, 48 h serum deprivation (DMEM+0.2% FBS), then fresh media with 0.25 μM inhibitor, FACS, control 42%
  percentage of Panc-1 cells in G0 quiescent state: 27%
[2]; Panc-1, 48 h serum deprivation, then fresh media with 0.25 μM inhibitor, FACS, control 6%
  number of cells in S-phase of cell cycle: 13%
[2]; Panc-1, presence of inhibitor
  entry of additional Panc-1 cells into quiescence: blocked additional Panc-1 cells from entering quiescence
